Laboratory results taken from ChEMBL document CHEMBL4359824, “Dual FLT3 inhibitors: Against the drug resistance of acute myeloid leukemia in recent decade” (Eur J Med Chem, 2019).

What was measured:
MV4-11 [1] = assay: Antiproliferative activity against human MV4-11 cells after 48 hrs by CellTiter-Glo assay; type: functional, cell-based; settings: MV4-11, 48 h
MOLM-13 [2] = assay: Antiproliferative activity against human MOLM13 cells after 48 hrs by CellTiter-Glo assay; type: functional, cell-based; settings: MOLM-13, 48 h
[3] = target: Serine/threonine-protein kinase pim-1 (Homo sapiens, UniProt P11309); assay: Binding affinity to Pim-1 (unknown origin)
Sequence of Serine/threonine-protein kinase pim-1 (P11309 whole entry): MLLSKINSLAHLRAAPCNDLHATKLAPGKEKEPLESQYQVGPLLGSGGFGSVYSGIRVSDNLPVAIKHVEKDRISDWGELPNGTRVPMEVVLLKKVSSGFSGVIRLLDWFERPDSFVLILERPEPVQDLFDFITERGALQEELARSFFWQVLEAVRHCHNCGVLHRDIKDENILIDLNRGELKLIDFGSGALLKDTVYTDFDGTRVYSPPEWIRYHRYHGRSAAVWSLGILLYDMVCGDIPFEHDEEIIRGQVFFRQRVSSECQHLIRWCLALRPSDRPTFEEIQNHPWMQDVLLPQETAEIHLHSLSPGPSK

[4] = target: Serine/threonine-protein kinase pim-3 (Homo sapiens, UniProt Q86V86); assay: Binding affinity to Pim-3 (unknown origin)
[5] = target: Serine/threonine-protein kinase pim-2 (Homo sapiens, UniProt Q9P1W9); assay: Binding affinity to Pim-2 (unknown origin)
Sequence of Serine/threonine-protein kinase pim-2 (Q9P1W9 whole entry): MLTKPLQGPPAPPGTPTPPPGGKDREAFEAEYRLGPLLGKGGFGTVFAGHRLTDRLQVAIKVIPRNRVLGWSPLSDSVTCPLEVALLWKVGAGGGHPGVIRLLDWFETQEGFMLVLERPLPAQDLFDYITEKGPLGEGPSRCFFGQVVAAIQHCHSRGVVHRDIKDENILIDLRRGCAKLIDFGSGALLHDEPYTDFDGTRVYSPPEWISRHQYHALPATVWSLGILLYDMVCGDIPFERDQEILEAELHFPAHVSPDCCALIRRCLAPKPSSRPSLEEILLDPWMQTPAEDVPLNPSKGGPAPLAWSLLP

[6] = target: T1, Receptor-type tyrosine-protein kinase FLT3 (Homo sapiens, UniProt P36888); assay: Binding affinity to FLT3 (unknown origin)
T1 sequence (P36888 whole entry): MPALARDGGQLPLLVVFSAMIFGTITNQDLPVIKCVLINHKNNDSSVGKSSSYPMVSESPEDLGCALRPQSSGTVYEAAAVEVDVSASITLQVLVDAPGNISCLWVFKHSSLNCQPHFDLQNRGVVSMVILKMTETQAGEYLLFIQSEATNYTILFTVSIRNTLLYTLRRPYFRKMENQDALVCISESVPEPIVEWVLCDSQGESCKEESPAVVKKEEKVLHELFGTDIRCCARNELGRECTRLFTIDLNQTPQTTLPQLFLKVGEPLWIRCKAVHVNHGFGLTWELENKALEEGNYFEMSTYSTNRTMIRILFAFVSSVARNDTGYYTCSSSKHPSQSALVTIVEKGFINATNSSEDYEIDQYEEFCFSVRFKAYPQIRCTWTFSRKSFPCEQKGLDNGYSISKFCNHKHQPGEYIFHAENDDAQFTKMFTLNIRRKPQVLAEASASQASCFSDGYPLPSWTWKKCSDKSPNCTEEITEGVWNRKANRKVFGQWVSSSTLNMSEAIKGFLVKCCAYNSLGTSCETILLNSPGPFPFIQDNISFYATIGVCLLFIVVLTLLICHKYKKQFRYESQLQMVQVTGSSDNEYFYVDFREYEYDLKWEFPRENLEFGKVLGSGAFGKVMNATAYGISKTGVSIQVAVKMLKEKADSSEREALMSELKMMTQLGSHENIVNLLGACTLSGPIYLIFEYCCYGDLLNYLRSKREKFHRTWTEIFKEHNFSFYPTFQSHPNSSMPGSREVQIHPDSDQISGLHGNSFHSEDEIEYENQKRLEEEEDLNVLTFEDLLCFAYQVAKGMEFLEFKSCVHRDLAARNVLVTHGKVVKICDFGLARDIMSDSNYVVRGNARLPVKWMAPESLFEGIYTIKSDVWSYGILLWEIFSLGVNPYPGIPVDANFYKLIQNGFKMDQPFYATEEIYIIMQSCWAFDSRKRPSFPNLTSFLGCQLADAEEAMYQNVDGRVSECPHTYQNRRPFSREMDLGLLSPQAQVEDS

[7] = Cytotoxicity against mouse BAF3(transformed) cells harboring D835G mutant by trypan blue dye exclusion method; type: functional, cell-based
[8] = Cytotoxicity against mouse Ba/F3 FLT3-D835Y cells by trypan blue dye exclusion method; type: functional, cell-based; settings: BaF3
[9] = target: Dual specificity mitogen-activated protein kinase kinase 1 (Homo sapiens, UniProt Q02750); assay: Inhibition of MEK1 (unknown origin) phosphorylation by [gamma-33P]-ATP assay
Sequence of Dual specificity mitogen-activated protein kinase kinase 1 (Q02750 whole entry): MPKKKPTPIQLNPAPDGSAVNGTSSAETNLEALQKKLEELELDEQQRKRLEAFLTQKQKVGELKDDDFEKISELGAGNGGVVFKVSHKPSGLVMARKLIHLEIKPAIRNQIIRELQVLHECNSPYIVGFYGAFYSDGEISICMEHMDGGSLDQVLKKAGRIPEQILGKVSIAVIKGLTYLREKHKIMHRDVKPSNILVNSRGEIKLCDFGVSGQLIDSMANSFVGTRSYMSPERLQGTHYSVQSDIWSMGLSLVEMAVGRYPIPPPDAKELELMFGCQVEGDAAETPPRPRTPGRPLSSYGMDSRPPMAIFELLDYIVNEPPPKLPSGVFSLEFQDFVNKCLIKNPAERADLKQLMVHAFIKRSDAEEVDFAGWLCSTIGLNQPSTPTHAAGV

[10] = target: T1, Receptor-type tyrosine-protein kinase FLT3; assay: Inhibition of FLT3 (unknown origin) phosphorylation by [gamma-33P]-ATP assay
[11] = Oral bioavailability in dog; type: ADME, organism-based, Canis lupus familiaris; settings: in vivo
[12] = Oral bioavailability in monkey; type: ADME, organism-based, Macaca mulatta; settings: rhesus monkey, in vivo
MV4-11 [13] = assay: Antitumor activity against human MV4-11 cells xenografted in SCID/beige mouse assessed as tumor growth inhibition at 75 mg/kg administered daily relative to control; type: functional; settings: read-out: TGI
MV4-11 [14] = assay: Antitumor activity against human MV4-11 cells xenografted in SCID/beige mouse assessed as tumor growth inhibition at 50 mg/kg administered daily relative to control; type: functional; settings: read-out: TGI
MV4-11 [15] = assay: Antitumor activity against human MV4-11 cells xenografted in SCID/beige mouse assessed as tumor growth inhibition at 100 mg/kg administered daily relative to control; type: functional; settings: read-out: TGI
MOLM-14 = assay: Cytotoxicity against human MOLM14 cells; type: functional, cell-based
MV4-11 [16] = assay: Cytotoxicity against human MV4-11 cells; type: functional, cell-based
MOLM-13 [17] = assay: Cytotoxicity against human MOLM13 cells; type: functional, cell-based
MOLM-13 [18] = assay: Cytotoxicity against human MOLM13 cells expressing FLT3 ITD mutant; type: functional, cell-based
MV4-11 [19] = assay: Cytotoxicity against human MV4-11 cells expressing FLT3 ITD mutant; type: functional, cell-based
[20] = target: T1, Receptor-type tyrosine-protein kinase FLT3; assay: Inhibition of wild type FLT3 (unknown origin) expressed in mouse BAF3 cells; type: cell-based

C1=N/C2=N/c3ccc(OCCN4CCCC4)c(c3)COC/C=C/COCc3cccc(c3)C(=C1)N2 [PACRITINIB]
IC50 (MV4-11 [1]): 67 nM
IC50 (MOLM-13 [2]): 47 nM

C[C@]12O[C@H](C[C@H](O)[C@H]1O)n1c3ccccc3c3c4c(c5c6ccccc6n2c5c31)C(=O)NC4=O
Kd [3]: 2.9 nM
Kd [4]: 0.4 nM
Kd [5]: 3.1 nM
Kd [6]: 3.2 nM

CCNc1cc(O)c2c(c1)/C=C/C[C@H](O)[C@H](O)C(=O)/C=C\[C@@H](C)[C@H](C)OC2=O [E-6201]
IC50 [7]: 4600 nM
IC50 [8]: 26000 nM
IC50 [9]: 50 nM
IC50 [10]: 5 nM

COc1cc2c(N3CCN(C(=O)Nc4ccc(OC(C)C)cc4)CC3)ncnc2cc1OCCCN1CCCCC1 [TANDUTINIB]
bioavailability [11]: 50%
bioavailability [12]: 100%

CC(C)n1c(C2CCNCC2)nc2c([N+](=O)[O-])c(Br)c(Br)cc21 [DAPOLSERTIB]
inhibition in vivo at 75 mg/kg (MV4-11 [13]): 74%
inhibition in vivo at 50 mg/kg (MV4-11 [14]): 67%
inhibition in vivo at 100 mg/kg (MV4-11 [15]): 82%

Cc1n[nH]c2ccc(-c3cncc(OC[C@@H](N)Cc4ccccc4)c3)cc12
EC50 (MOLM-14): 60 nM
EC50 (MV4-11 [16]): 92 nM
EC50 (MOLM-13 [17]): 170 nM

CC1(COc2ccc3c(c2)ncn3-c2ccc3cccc(N4CCC(N)CC4)c3n2)COC1 [CRENOLANIB]
IC50 (MOLM-13 [18]): 4.9 nM
IC50 (MV4-11 [19]): 1.5 nM

COc1cccc2nc(-c3cccs3)nc(NN3C(=O)C=C(C)C3=O)c12 [AS-602868]
IC50 [20]: 618 nM
